Patent US11970466B1, “4-((5-(3-fluorophenyl)-4-phenyl-4H-1,2,4-triazol-3-ylthio)methyl)benzoic acid as an antimicrobial compound” (KING FAISAL UNIVERSITY, priority 2023, dated 2024)

Legend:
Assay type in all cases: cell-based
Bacillus Cereus = test: Agar plate disc-diffusion, antibacterial inhibition zone; conditions: Bacillus Cereus (Gram positive), nutrient agar, 37° C., 48 hours
Experimental: (§1) The agar plate disc-diffusion method was applied. […] The discs were then placed onto the surface of agar plates (nutrient agar for bacteria and Sabouraud's dextrose agar for fungi) seeded with the test organism. Each plate contained 15 mL of the agar medium, previously seeded with 0.2 mL of the broth culture of each organism pregrown for 18 hours. The plates were incubated at 37° C. for 48 hours, and 72 hours for fungi. The inhibition zones were measured in mm. Discs impregnated with DMSO were used as a control, and its inhibition zone was subtracted from the tested compound actual inhibition zone.

Pseudomonas aeruginosa = test: as above; conditions: Pseudomonas aeruginosa (Gram negative), nutrient agar, 37° C., 48 hours
Experimental: as §1

Staphylococcus aureus = test: as above; conditions: Staphylococcus aureus (Gram positive), nutrient agar, 37° C., 48 hours
Experimental: as §1

Escherichia coli = test: as above; conditions: Escherichia coli (Gram negative), nutrient agar, 37° C., 48 hours
Experimental: (§2) The agar plate disc-diffusion method was applied. Sterilized filter papers (6 mm in diameter) were wetted with 10 μL of a solution of 4-((5-(3-fluorophenyl)-4-phenyl-4H-1,2,4-triazol-3-ylthio)methyl)benzoic acid (III) to be tested, containing 10 mg/mL in DMSO, and the discs were allowed to air dry. The discs were then placed onto the surface of agar plates (nutrient agar for bacteria and Sabouraud's dextrose agar for fungi) seeded with the test organism. Each plate contained 15 mL of the agar medium, previously seeded with 0.2 mL of the broth culture of each organism pregrown for 18 hours. The plates were incubated at 37° C. for 48 hours, and 72 hours for fungi. The inhibition zones were measured in mm. Discs impregnated with DMSO were used as a control, and its inhibition zone was subtracted from the tested compound actual inhibition zone.

Aspergillus flavus = test: Agar plate disc-diffusion, antifungal inhibition zone; conditions: Sabouraud's dextrose agar, 72 hours
Experimental: as §1

[1] = system: Chrysosporium keratinophilum; test: as above; conditions: Sabouraud's dextrose agar, 72 hours
Experimental: as §2

[2] = A = concentration of comp. = 10,000 μL
[3] = B = concentration of comp. = 30,000 μL
[4] = C = concentration of comp. = 50,000 μL

Row | SMILES | inhibition zone (Bacillus Cereus; [2]) [mm] | inhibition zone (Bacillus Cereus; [3]) [mm] | inhibition zone (Bacillus Cereus; [4]) [mm] | inhibition zone (Pseudomonas aeruginosa; [2]) [mm] | inhibition zone (Pseudomonas aeruginosa; [3]) [mm] | inhibition zone (Pseudomonas aeruginosa; [4]) [mm] | inhibition zone (Staphylococcus aureus; [2]) [mm] | inhibition zone (Staphylococcus aureus; [3]) [mm] | inhibition zone (Staphylococcus aureus; [4]) [mm] | inhibition zone (Escherichia coli; [2]) [mm] | inhibition zone (Escherichia coli; [3]) [mm] | inhibition zone (Escherichia coli; [4]) [mm] | inhibition zone (Aspergillus flavus; [2]) [mm] | inhibition zone (Aspergillus flavus; [3]) [mm] | inhibition zone (Aspergillus flavus; [4]) [mm] | inhibition zone [1, 2] [mm] | inhibition zone [1, 3] [mm] | inhibition zone [1, 4] [mm]
1 | O=C(O)c1cn(C2CC2)c2cc(N3CCNCC3)c(F)cc2c1=O [Cip., ciprofloxacin] | 29 | 30 | 42 | 29 | 30 | 53 | 43 | 44 | 53 | 30 | 39 | 60 | 29 | 30 | 42 | 29 | 30 | 53
2 | O=C(O)c1ccc(CSc2nnc(-c3cccc(F)c3)n2-c2ccccc2)cc1 [III, 4-((5-(3-fluorophenyl)-4-phenyl-4H-1,2,4-triazol-3-ylthio)methyl)benzoic acid] | 26 | 28 | 40 | 22 | 26 | 37 | 19 | 25 | 35 | 28 | 36 | 50 | 24 | 26 | 35 | 23 | 27 | 41
